Data from patent publication US20050197331A1, “Novel anti-inflammatory and analgesic heterocyclic amidines that inhibit nitrogen oxide (NO) production” (ROTTAPHARM SPA, priority 2004, published 2005).
Values joined by “and” are separate entries in the source; they are usually repeats but may differ in a detail not shown here. Equal entries are not always repeated. Structures can show the parent of a compound that is named as a salt. Where two headings read alike, the source gives them in different places.

Assays:
[1] = tested on: PGE2; experiment: Inhibition of PGE2 formation in rabbit articular chondrocytes stimulated with IL-1β (RIA); type: cell-based; details: for IC50: Oryctolagus cuniculus, Chondrocyte
Method: (§1) a) The inhibitory activity on the formation of NO measured as NO2^− (nitrite) and PGE2 was studied in vitro on culture media of rabbit articular chondrocytes stimulated with the cytokine IL-1β (1 ng/ml) for 48 hours. For the preparation of the chondrocytes, the method described by Berenbaum et al. [FEBS Letters 340, 51-55 (1994)] was followed. Briefly, fragments of cartilage removed aseptically from the articular heads of rabbit shoulder, hip and knee were finely ground and digested at 37° C. in hyaluronidase, trypsin and collagenase solutions, giving, after filtration through sterile gauze and centrifugation at 600×g and suitable dilution with 10% DMEM-FCS 10%, a concentration per well of about 1×10^5 cells. The cells were maintained under these conditions until confluent (about 15 days), the medium being replaced every 3 days. At this point, the test products dissolved in the medium were added to each sample and, after 20 minutes, 350 μl of IL-1β were added, to give a final concentration of 1 ng/ml. The stimulation lasted 48 hours at 37° C. (incubation in air/7% CO2). A nitrite assay was subsequently performed on the cell supernatant, as described by Green et al. [Anal. Biochem. 126, 131-138 (1982)], and of PGE2 by RIA assay. The results obtained are shown in Table 3, in which is given, for a number of the compounds that are the subject of the invention and that are already illustrated in Table 1, the IC50, i.e. the concentration (micromolar) of antagonist capable of inhibiting the formation of nitrites and PGE2 by 50% relative to the control group, i.e. relative to the cells stimulated with IL-1β but without addition of antagonists.

[2] = tested on: rabbit articular chondrocytes; experiment: Cellular toxicity on rabbit articular chondrocytes; type: cell-based; details: noted beside IN in Table 3
Method: as §1

[3] = tested on: formation of NO measured as NO2^− (nitrite); experiment: Inhibition of NO (nitrite) formation in rabbit articular chondrocytes stimulated with IL-1β; type: cell-based
Method: as §1

[4] = tested on: rat paw injected with Zymosan; experiment: Zymosan-induced paw oedema in rats; type: in vivo; details: for Anti-inflammatory activity (oedema) ED30 / Mean (Oedema + Analgesia) ED30: os, 0-6 hours; for Anti-inflammatory activity (oedema) ED30: dose reducing volume increase by 30%; for Mean (Oedema + Analgesia) ED30: mean of oedema and analgesia ED30; for anti-inflammatory and anti-hyperalgesic action (in words): Zymosan, administered orally, L-NAME up to maximum dose 50 mg/kg
Method: (§2) This is a phlogogenic agent, consisting of a protein-glycoside complex, extracted from the cell walls of raw yeast, which is capable of inducing rapid degranulation of neutrophils, an increase in the production of TNF-α, interleukin-1 (IL-1), IL-6 and stimulation of NO generation by monocytes and macrophages (ZymosaN:Merck Index XIII ed. No. 10250, p. 1818).
(§3) The experiments consisted of sub-plantar intradermal injection into the animal of 4 mg of Zymosan suspended in 100 μl of sterile physiological solution, while the test compounds were administered orally 30 minutes before injection of the phlogogenic agent.
(§4) Measurement of the inflammation of the injected paw and of the consequent hyperalgesic effects was performed 2, 4 and 6 hours after the administration of Zymosan. The oedema was evaluated as the increase in volume of the injected paw within the period 0-6 hours, relative to the initial value of the volume of the paw, i.e. before the injection of Zymosan (basal value).
The measurements of the variation of the volume of the paw were recorded using a hydroplethysmometer (Mod. 7150, Basile, Italy), which consists of two plastic cuvettes containing a surfactant liquid, the larger one being used for immersion of the paw, connected to the smaller one which contains a transducer capable of recording small displacements of volume of the liquid used for the measurement. The paw is immersed in the cuvettes up to the tibiotarsal joint. The volume of liquid displaced by the paw indicates the magnitude of the inflammation.
For each test compound, at least three doses were used (generally 10, 20 and 40 mg/kg) with at least five animals per group×dose, so as to be able to calculate an ED30, i.e. the dose in mg/kg capable of reducing by 30% the Zymosan-induced volume increase, relative to the group of control animals, i.e. animals injected only with the phlogogenic agent and treated orally with distilled water.

[5] = tested on: rat paw injected with Zymosan; experiment: Zymosan-induced mechanical hyperalgesia in rats (Randall-Selitto); type: in vivo; details: os, 0-6 hours, dose increasing pain threshold by 30%
Method: as §2, §3, §4
The hyperalgesia induced by the intradermal administration of Zymosan was evaluated on these animals and at the same times described previously for the evaluation of the oedema, using the Randall-Selitto method [Arch. Int. Pharmacodyn. 111, 409 (1957)].
When the animal makes a noise following the pain stimulus, the operator blocks the punch and records the force, expressed in grams, which was applied to the paw (the cut-off value is 500 grams). The difference in the meal chanical pain threshold between the basal value (generally about 230-250 grams) and that recorded at the indicated times after injection of the phlogogenic agent, generally 130-140 g for the control animals 6 hours after injection of the phlogogenic agent, is defined as mechanical hyperalgesia. In this case also, an ED30 was calculated, i.e. the dose in mg/kg capable of increasing the pain threshold by 30% (meal chanical hyperalgesia) in the animals treated with the test compounds relative to the group of control animals.

[6] = tested on: IL-6; experiment: Inhibition of IL-6 expression (mRNA) in SW 1353 cells stimulated with IL-1β, Real Time PCR; type: cell-based; details: Homo sapiens, SW1353; SW 1353 cells stimulated for 6 hours with IL-1β
From the text: In practice, the RNA extracted from the cells was back-transcribed to c-DNA by means of a thermocycler (BioRad—“iCycler”) and subsequently amplified via the Real Time PCR technique using a probe and a primer specific for IL-6, from the company Applied Biosystem, and the thermocycler 7000 Sequence Detection System (Applied Biosystem).
The capacity […] may be considered as large, since the increase in the expression of this cytokine is associated with the physiopathology of various human diseases, for instance Crohn's disease, as described previously.

[7] = rabbit articular chondrocytes, IL-1β 1 ng/ml, 48 hours, RIA, read-out: Inhibition % IC50 PGE2
[8] = rabbit articular chondrocytes stimulated with IL-1β
[9] = Oryctolagus cuniculus, Chondrocyte, rabbit articular chondrocytes, IL-1β 1 ng/ml, 48 hours, nitrite in supernatant, read-out: Inhibition % IC50 NO
[10] = Oryctolagus cuniculus, Chondrocyte, rabbit articular chondrocytes stimulated with IL-1β, read-out: IC50, production of NO
[11] = rabbit articular chondrocytes stimulated with IL-1β, read-out: IC50, formation of PGE2

Compound | IC50 [1, 7] | Tox = cellular toxicity (concentration) [2] | melting point | inhibiting the production of NO (in words) [3, 8] | Anti-inflammatory activity (oedema) ED30 [4] | Mean (Oedema + Analgesia) ED30 [4] | Analgesic activity (mechanical anti-hyperalgesia) ED30 [5] | activity on NO production, fold less powerful than the best compounds of the invention [3, 8] | IC50 ([3]; rabbit articular chondrocytes stimulated with IL-1β, read-out: IC50, production of NO) | Inhibition % IC50 PGE2 ([1]; rabbit articular chondrocytes, IL-1β 1 ng/ml, 48 hours, RIA) | anti-inflammatory and anti-hyperalgesic action (in words) ([4]; 50 mg/kg) | IC50 [3, 9] | IC50 [6] | anti-inflammatory and anti-hyperalgesic action (in words) [4] | IC50 [3, 10] | IC50 [1, 11]
COc1ccccc1-c1nc2cc(NC(C)=N)ccc2s1 [Compound 10, N-[2-(2-methoxyphenyl)benzothiazol-5-yl]acetamidine] | 5.9 µM | 100 µM | 163 to 165 °C | – | – | – | – | – | – | – | – | – | – | – | – | –
Cc1ccc(-c2cc(C(F)(F)F)nn2-c2ccc(S(N)(=O)=O)cc2)cc1 [Celecoxib, reference compound] | 0.02 µM | – | – | entirely inactive | 79.4 mg/kg | 74.3 mg/kg | 69.2 mg/kg | – | – | – | – | – | – | – | – | –
CC(=N)Nc1ccc2nc(-c3ccc(Cl)cc3)sc2c1 [Compound 3, N-[2-(4-chlorophenyl)benzothiazol-6-yl]acetamidine] | 1.9 µM | 30 µM | 212.2 to 213.5 °C | – | – | – | – | – | – | – | – | – | – | – | – | –
COC(=O)[C@@H](N)CCCNC(=N)N[N+](=O)[O-] [L-NAME, N^G-nitro-L-arginine methyl ester, reference compound] | – | – | – | – | IN (the compound L-NAME was entirely inactive up to the maximum dose administered (50 mg/kg)) | IN (the compound L-NAME was entirely inactive up to the maximum dose administered (50 mg/kg)) | IN (the compound L-NAME was entirely inactive up to the maximum dose administered (50 mg/kg)) | about 10 fold | 71 µM | IN (IN = <25% inhibitory activity at 30 × 10^−6M) | inactive | – | – | – | – | –
CC(=N)Nc1ccc2nc(-c3ccccc3)ncc2c1 [Compound 27, N-(2-phenylquinazolin-6-yl)acetamidine dihydrochloride] | 9 µM | – | – | – | 24.6 mg/kg | 18.8 mg/kg | 13.0 mg/kg | – | – | – | – | 67.5 µM | 1.5 to 6 µM | powerful anti-inflammatory and anti-hyperalgesic action | – | –
CC(=N)Nc1ccc2[nH]c(-c3ccccc3)cc2c1 [Compound 5, N-(2-phenyl-1H-indol-5-yl)acetamidine] | 1.2 µM | – | 217.7 to 220 °C and 218 to 220 °C | – | 39.4 mg/kg | 29.4 mg/kg | 19.3 mg/kg | – | – | – | – | 3.4 µM | 1.5 to 6 µM | powerful anti-inflammatory and anti-hyperalgesic action | 3 to 8 µM | –
CC(=N)Nc1ccc2sc(-c3ccccc3C)nc2c1 [Compound 18, N-[2-(2-methylphenyl)benzothiazol-5-yl]acetamidine] | 1.2 µM | – | 188.4 to 189.8 °C | – | – | – | – | – | – | – | – | 6.2 µM | 1.5 to 6 µM | – | 3 to 8 µM | –
CC(=N)Nc1ccc2nc(-c3ccccc3)ccc2c1 [Compound 8, N-(2-phenylquinol-6-yl)acetamidine] | 2.3 µM | – | 143 to 144.4 °C | – | 19.8 mg/kg | 15.8 mg/kg | 11.8 mg/kg | – | – | – | – | 47.9 µM | 1.5 to 6 µM | powerful anti-inflammatory and anti-hyperalgesic action | – | –
CC(=N)Nc1ccc2sc(-c3ccccc3)nc2c1 [Compound 9, N-(2-phenylbenzothiazol-5-yl)acetamidine] | 4.2 µM | – | 177 to 178 °C | – | 33.9 mg/kg | 32.6 mg/kg | 31.3 mg/kg | – | – | – | – | 18 µM | 1.5 to 6 µM | powerful anti-inflammatory and anti-hyperalgesic action | – | –
CC(=N)Nc1ccc2oc(-c3ccccc3)cc2c1 [Compound 28, N-(2-phenylbenzofuran-5-yl)acetamidine] | 0.5 µM | – | 204.8 to 205.9 °C | – | 20.8 mg/kg | 22.6 mg/kg | 24.4 mg/kg | – | – | – | – | 7.8 µM | 1.5 to 6 µM | powerful anti-inflammatory and anti-hyperalgesic action | 3 to 8 µM | 0.3 to 0.8 µM
CC(=N)Nc1ccc2oc(-c3ccccc3)nc2c1 [Compound 29, N-(2-phenylbenzoxazol-5-yl)acetamidine] | 3.2 µM | – | 171.2 to 173.4 °C | – | – | – | – | – | – | – | – | 28.6 µM | 1.5 to 6 µM | – | – | –
CC(=N)Nc1ccc2nc(-c3ccccc3)sc2c1 [Compound 1, N-(2-phenylbenzothiazol-6-yl)acetamidine] | 2.4 µM | – | 161 to 162.1 °C | – | 12.6 mg/kg | 9.7 mg/kg | 6.7 mg/kg | – | – | – | – | 6.5 µM | – | powerful anti-inflammatory and anti-hyperalgesic action | 3 to 8 µM | –
CC(=N)Nc1ccc2oc(-c3ccc(Cl)c(Cl)c3)nc2c1 [Compound 34, N-[2-(3,4-dichlorophenyl)benzoxazol-5-yl]acetamidine] | 0.4 µM | – | 182 to 184 °C | – | – | – | – | – | – | – | – | 4.3 µM | – | – | 3 to 8 µM | 0.3 to 0.8 µM
CCCCCc1nc2ccc(NC(C)=N)cc2s1 [Compound 4, N-(2-pentylbenzothiazol-6-yl)acetamidine] | 6.6 µM | – | 112.6 to 114.7 °C | – | – | – | – | – | – | – | – | 6.9 µM | – | – | 3 to 8 µM | –
CC(=N)Nc1ccc2[nH]c(-c3ccccc3C)nc2c1 [Compound 39, N-[2-(2-methylphenyl)benzimidazol-5-yl]acetamidine] | 9.9 µM | – | 154 to 158 °C | – | – | – | – | – | – | – | – | 199 µM | – | – | – | –
